# Measurements taken from patent US9226934B2, “Anti-cancer drug” (THE UNIVERSITY OF TOKYO, priority 2008, dated 2016).
# How the values were obtained:
# [1] = tested on: MC 38, mouse colon carcinoma cells; assay: Subcutaneous tumor model of MC38 colon carcinoma cells in C57Bl/6 mice, tumor growth; type: in vivo; settings: agent alone i.p. on day 10, 13, 16; compared with non-treated group; afterwards growth as in non-treated group
# Description: (§1) The MC 38, mouse colon carcinoma cells or B16, melanoma cells were subcutaneously injected to the back of 6-week-old C57BI/6 mice (1×10^5 cells/mouse). After the tumor diameter (longer diameter) reached 5 mm (25 to 30 mm^2) (day 10), an anti-cancer agent and/or an anti-MFG-E8 antibody were/was intraperitoneally administered to each mouse on day 10, day 13, and day 16 according to any of the following protocols. The experiments according to each protocol were performed twice. The employed anti-MFG-E8 antibody was a blocking antibody commercially available from MBL. In protocols 1 to 4, MC38 was used, and B16 melanoma was used in protocol 5.
# • Gemcitabine (GEM): 4 mg/kg • Gemcitabine (GEM): 1 mg/kg • Anti-MFG-E8 antibody: 1 mg/kg • Gemcitabine (GEM): 4 mg/kg+anti-MFG-E8 antibody: 1 mg/kg • Gemcitabine (GEM): 1 mg/kg+anti-MFG-E8 antibody: 1 mg/kg Protocol 2: • CPT-11: 1 mg/kg • 5-FU: 0.1 M • Anti-MFG-E8 antibody: 1 mg/kg • CPT-11: 1 mg/kg+anti-MFG-E8 antibody: 1 mg/kg • 5-FU: 0.1 M+anti-MFG-E8 antibody: 1 mg/kg Protocol 3: • Epidermal growth factor receptor tyrosine kinase 1 (EGFR-TK1): […] • Anti-vascular endothelial growth factor receptor-2 monoclonal antibody (α-VEGFR-2Ab): 40 mg/kg • Anti-MFG-E8 antibody: 1 mg/kg Protocol 4: • Irradiation (XRT): 3 Gy/day×5 • Anti-MFG-E8 antibody: 1 mg/kg Protocol 5: • Doxorubicin (Dox): 5 mg/kg • Etoposide (Etop): 2 mg/kg • Anti-MFG-E8 antibody: 1 mg/kg (Results)
# [2] = tested on: B16, melanoma cells; assay: Subcutaneous tumor model of B16 melanoma cells in C57Bl/6 mice, tumor growth; type: in vivo, mouse; settings: agent alone i.p. on day 10, 13, 16; compared with non-treated group; afterwards growth as in non-treated group
# Description: as §1, with “5. […]” for “5.”
# [3] = tested on: Dendritic cells (BMDCs); assay: Cytokine concentrations of BMDC culture supernatant, ELISA; type: cell-based, mouse; settings: recombinant MFG-E8 100 ng/mL or anti-MFG-E8 monoclonal antibody 20 μg/mL overnight
# Description: Dendritic cells (BMDCs) were prepared through culturing myeloid progenitor cells for seven days in a GM-CSF containing medium, and treated overnight with recombinant MFG-E8 (100 ng/mL, product of R&D Systems), an anti-MFG-E8 monoclonal antibody (20 μg/mL, MBL), or a polyclonal MFG-E8 anti-serum (20 μg/mL). The IL-12, IL-23, TNF-α, and IL-10 concentrations of the culture supernatant were determined with ELISA. On day 7, BMDCs were co-cultured with PKH26 (Sigma-Aldrich)-labeled EG.7-OVA cells using a 12-well plate (ratio: 1:10), and phagocytosis was determined with flow cytometry. A similar experiment was performed using tumor cells treated for 30 minutes with an anti-MFG-E8 monoclonal antibody ([…]) before the co-culture. The effect of αvβ3 integrin-blocking antibody (RMV-7, product of Millipore) or Fc-receptor-blocking antibody (product of BD Bioscience) was also evaluated on the intake of tumor cells. Cross-presentation was tested using the following procedure. Specifically, naive CD4^+ T cells were isolated from the spleen of C57BL/6-Tg (ACTB-OVA) 916Jen/J mice using magnetic cell sorting (product of Miltenyi Biotech). The thus-isolated cells were added to the dendritic cells to which tumor cells had been loaded for 24 hours. Expression of IFN-γ within the cells was measured with flow cytometry.
# [4] = tested on: dendritic cells; assay: OVA-specific T cell activity in mixed culture with treated dendritic cells, intracellular IFN-γ and IL-10; type: cell-based, mouse; settings: dendritic cells treated with MFG-E8 recombinant protein 100 μg/mL or anti-MFG-E8 antibody 20 μg/mL; 72 h; compared to control
# Text: The mechanisms of activation of dendritic cells and T cells through employment of the anti-MFG-E8 antibody and the anti-cancer agent, such activation having been observed in vivo, were further investigated in vitro by using a mixed culture system.
# Specifically, ovalbumin (OVA) was employed as a model antigen. In a specific procedure, bone marrow cells were collected from DO11.10 (MHC class II-restricting OVA antigen transgenic mice), and differentiation to dendritic cells was induced with granulocyte-monocyte colony-stimulating factor (GM-CSF). Seven days after the initiation of the differentiation induction, the cells were treated with MFG-E8 recombinant protein (100 μg/mL) or anti-MFG-E8 antibody (20 μg/mL). Thereafter, on day 8, the thus-treated cells were pulsed with MHC class II OVA-restricting OVA peptide ([…]) or a negative control peptide (HSA) for six hours. The resultant cells were admixed with naive CD4+ positive T cells derived from syngeneic (Balb/c) mice in such an amount that the ratio of dendritic cells to CD4+ T cells was adjusted to 1:10, and the cell mixture was cultured in the presence of an anti-CD3 antibody (0.1 μg/mL). Seventy-two hours after, the activity of T cells was determined through flow cytometry, in terms of intracellular expression of IFN-γ and IL-10.
Molecule,"tumor growth, anti-cancer agent alone [1]","tumor growth, anti-cancer agent alone [2]",further results
"O=c1[nH]cc(F)c(=O)[nH]1 [5FU, 5-FU]",tumor growth was significantly suppressed for 5 to 10 days after administration,–,–
CCc1c2c(nc3ccc(OC(=O)N4CCC(N5CCCCC5)CC4)cc13)-c1cc3c(c(=O)n1C2)COC(=O)[C@]3(O)CC [CPT-11],tumor growth was significantly suppressed for 5 to 10 days after administration,–,–
"Nc1ccn([C@@H]2O[C@H](CO)[C@@H](O)C2(F)F)c(=O)n1 [GEM, gemcitabine]",tumor growth was significantly suppressed for 5 to 10 days after administration,–,–
COc1cccc2c1C(=O)c1c(O)c3c(c(O)c1C2=O)C[C@@](O)(C(=O)CO)C[C@@H]3O[C@H]1C[C@H](N)[C@H](O)[C@H](C)O1 [doxorubicin],–,tumor growth was significantly suppressed for 5 to 10 days after administration,–
COc1cc([C@@H]2c3cc4c(cc3[C@@H](O[C@@H]3O[C@@H]5CO[C@@H](C)O[C@H]5[C@H](O)[C@H]3O)[C@H]3COC(=O)[C@H]23)OCO4)cc(OC)c1O [etoposide],–,tumor growth was significantly suppressed for 5 to 10 days after administration,–
"MFG-E8: MFG-E8 recombinant protein (product of R&D Systems in Example 11) (protein, UniProt Q08431 24-387, looked up) Lactadherin: LDICSKNPCHNGGLCEEISQEVRGDVFPSYTCTCLKGYAGNHCETKCVEPLGLENGNIANSQIAASSVRVTFLGLQHWVPELARLNRAGMVNAWTPSSNDDNPWIQVNLLRRMWVTGVVTQGASRLASHEYLKAFKVAYSLNGHEFDFIHDVNKKHKEFVGNWNKNAVHVNLFETPVEAQYVRLYPTSCHTACTLRFELLGCELNGCANPLGLKNNSIPDKQITASSSYKTWGLHLFSWNPSYARLDKQGNFNAWVAGSYGNDQWLQVDLGSSKEVTGIITQGARNFGSVQFVASYKVAYSNDSANWTEYQDPRTGSSKIFPGNWDNHSHKKNLFETPILARYVRILPVAWHNRIALRLELLGC",–,–,IL-10 production by dendritic cells [3]: enhanced secretion of IL-10; IL-10 production [4]: potentiation; OVA-specific IFN-γ production [4]: suppression
